Data reported in patent US10821115B2, “Compounds that inhibit Mcl-1 protein” (priority 2017, dated 2020).
Like-named read-outs stand apart in the source and are kept apart here.

Key:
[1] = biological target: recombinant human Mcl-1 (residues 171-327) / Bim interaction (Homo sapiens (Human), UniProt Q07820); assay: biochemical; type: binding; details: 0.1 nM Mcl-1(171-327), 0.05 nM biotin-Bim (51-76); read-out: Mcl-1 HTRF IC50
Description: The inhibition of the Mcl-1/Bim interaction was measured using a time-resolved fluorescence resonance energy transfer (TR-FRET) assay. […] The TR-FRET assay was conducted in a 384-well white OptiPlate™ (PerkinElmer, Waltham, Mass.) in a total volume of 40 μL. The reaction mixture contained 0.1 nM Mcl-1(171-327), 0.05 nM biotin-Bim (51-76), 0.05 nM LANCE® Eu-W1024 Anti-6×His (PerkinElmer), 0.072 nM Streptavidin-Xlent (Cisbio, Bedford, Mass.), and serially diluted test compounds in the binding buffer of 20 mM Hepes, pH 7.5, 150 mM NaCl, 0.016 mM Brij®35, and 1 mM dithiothreitol. Test compounds were pre-incubated with Mcl-1(171-327) and biotin-Bim (51-76) for 60 min before addition of the detection mixture (LANCE® Eu-W1024 Anti-6×His and Streptavidin-Xlent). The reaction plates were further incubated overnight and then were read on an Envision® multimode reader (PerkinElmer). Fluorescence signals were measured at 620 nm (40-nm bandwidth) and 665 nm (7.5-nm bandwidth) with a 60 is delay after excitation at 320 nm (75-nm bandwidth). The signal ratio at 665/620 nm corresponded to the Mcl-1/Bim interaction and was used in all data analyses. The IC50 values of test compounds were determined from duplicate data by analyzing competition curves using a four-parameter sigmoidal model in GraphPad Prism (GraphPad Software, San Diego, Calif.) or in Genedata Screener® (Genedata, Basel, Switzerland).

[2] = test system: human multiple myeloma cell line, OPM-2; assay: Cell viability assay (OPM-2 10 FBS), CellTiter-Glo; type: cell-based
How it was run: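 Steps: plate cells at 3000/well in 10% FBS growth medium, add serially diluted compound, incubate 16 h at 37 °C with 5% CO2, add detection reagent and read luminescence after 25 min. A 4-parameter logistic model gives IC50.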

[3] = Homo sapiens, OPM-2, 16 h, read-out: OPM-2 10% FBS IC50 IP, OPM-2 cells, 10% FBS, 16 h incubation
[4] = read-out: OPM-2 10% FBS IC50 IP, OPM-2 cells, 10% FBS, 16 h incubation

Chain of recombinant human Mcl-1 (residues 171-327) / Bim interaction (Q07820 171-327): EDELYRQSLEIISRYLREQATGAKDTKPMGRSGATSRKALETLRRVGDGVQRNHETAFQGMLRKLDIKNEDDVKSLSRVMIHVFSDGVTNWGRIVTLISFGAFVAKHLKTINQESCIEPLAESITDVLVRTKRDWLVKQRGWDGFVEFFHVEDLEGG

SMILES | IC50 [1] | IC50 [2, 3] | IC50 [2, 4]
CCO[C@]1(CN2CCN(C(C)C)CC2)/C=C/C[C@H](C)[C@@H](C)S(=O)(=O)NC(=O)c2ccc3c(c2)N(C[C@@H]2CC[C@H]21)C[C@@]1(CCCc2cc(Cl)ccc21)CO3 [Example 114, (1S,3′R,6′R,7′R,8′E,11′S,12′R)-6-chloro-7′-ethoxy-11′,12′-dimethyl-7′-((4-(1-methylethyl)-1-piperazinyl)methyl)-3,4-dihydro-2H,15′H-spiro[naphthalene-1,22′-[20]oxa[13]thia[1,14]diazatetracyclo [14.7.2.0~3,6~.0~19,24~]pentacosa[8,16,18,24]tetraen]-15′-one 13′,13′-dioxide] | 0.104 nM | 68 nM | 
COC1CCN(C[C@]2(OC)/C=C/C[C@H](C)[C@@H](C)S(=O)(=O)NC(=O)c3ccc4c(c3)N(C[C@@H]3CC[C@H]32)C[C@@]2(CCCc3cc(Cl)ccc32)CO4)CC1 [Example 117, (1S,3′R,6′R,7′S,8′E,11′S,12′R)-6-chloro-7′-methoxy-7′-((4-methoxy-1-piperidinyl)methyl)-11′,12′-dimethyl-3,4-dihydro-2H,15′H-spiro[naphthalene-1,22′-[20]oxa[13]thia[1,14]diazatetracyclo [14.7.2.0~3,6~.0~19,24~]pentacosa[8,16,18,24]tetraen]-15′-one 13′,13′-dioxide] | 0.352 nM | 358 nM | 
CO[C@@]1(CN2CCC(N(C)C)CC2)/C=C/C[C@H](C)[C@@H](C)S(=O)(=O)NC(=O)c2ccc3c(c2)N(C[C@@H]2CC[C@H]21)C[C@@]1(CCCc2cc(Cl)ccc21)CO3 [Example 118, (1S,3′R,6′R,7′S,8′E,11′S,12′R)-6-chloro-7′-((4-(dimethylamino)-1-piperidinyl)methyl)-7′-methoxy-11′,12′-dimethyl-3,4-dihydro-2H,15′H-spiro[naphthalene-1,22′-[20]oxa[13]thia[1,14]diazatetracyclo [14.7.2.0~3,6~.0~19,24~]pentacosa[8,16,18,24]tetraen]-15′-one 13′,13′-dioxide] | 0.215 nM | 558 nM | 
CCO[C@]1(CN2CCN3CCS(=O)(=O)C[C@@H]3C2)/C=C/C[C@H](C)[C@@H](C)S(=O)(=O)NC(=O)c2ccc3c(c2)N(C[C@@H]2CC[C@H]21)C[C@@]1(CCCc2cc(Cl)ccc21)CO3 [Example 121] | 0.084 nM |  | 120 nM
CCO[C@]1(CN2CCN3CCS(=O)(=O)C[C@@H]3C2)/C=C/C[C@H](C)[C@@H](C)S(=O)(=O)NC(=O)c2ccc3c(c2)N(C[C@@H]2CC[C@H]21)C[C@@]1(CCCc2cc(Cl)ccc21)CO3 [Example 122] | 0.087 nM |  | 138 nM
CCO[C@]1(CN2CCN(CCOC)CC2)/C=C/C[C@H](C)[C@@H](C)S(=O)(=O)NC(=O)c2ccc3c(c2)N(C[C@@H]2CC[C@H]21)C[C@@]1(CCCc2cc(Cl)ccc21)CO3 [Example 123, (1S,3′R,6′R,7′R,8′E,11′S,12′R)-6-chloro-7′-ethoxy-7′-((4-(2-methoxyethyl)-1-piperazinyl)methyl)-11′,12′-dimethyl-3,4-dihydro-2H,15′H-spiro[naphthalene-1,22′-[20]oxa[13]thia[1,14]diazatetracyclo [14.7.2.0~3,6~.0~19,24~]pentacosa[8,16,18,24]tetraen]-15′-one 13′,13′-dioxide] | 0.205 nM | 228 nM | 
C[C@@H]1[C@@H](C)C/C=C/[C@](O)(CN(C)CCO)[C@@H]2CC[C@H]2CN2C[C@@]3(CCCc4cc(Cl)ccc43)COc3ccc(cc32)C(=O)NS1(=O)=O [Example 129] | 1.69 nM | 2630 nM | 
C[C@@H]1[C@@H](C)C/C=C/[C@]2(CNCCO2)[C@@H]2CC[C@H]2CN2C[C@@]3(CCCc4cc(Cl)ccc43)COc3ccc(cc32)C(=O)NS1(=O)=O [Example 134, (1S,3′R,6′R,7′R,8′E,11′S,12′R)-6-chloro-11′,12′-dimethyl-3,4-dihydro-2H,15′H-dispiro[naphthalene-1,22′-[20]oxa[13]thia[1,14]diazatetracyclo [14.7.2.0~3,6~.0~19,24~]pentacosa[8,16,18,24]tetraene-7′,2″-[1,4]oxazinan]-15′-one 13′,13′-dioxide] | 4.64 nM | 3000 nM | 
C[C@@H]1[C@@H](C)C/C=C/[C@]2(CN(CC3CCOCC3)CCO2)[C@@H]2CC[C@H]2CN2C[C@@]3(CCCc4cc(Cl)ccc43)COc3ccc(cc32)C(=O)NS1(=O)=O [Example 135, (1S,3′R,6′R,7′R,8′E,11′S,12′R)-6-chloro-11′,12′-dimethyl-4″- (tetrahydro-2H-pyran-4-ylmethyl)-3,4-dihydro-2H,15′H-dispiro[naphthalene-1,22′-[20]oxa[13]thia[1,14]diazatetracyclo [14.7.2.0~3,6~.0~19,24~]pentacosa[8,16,18,24]tetraene-7′,2″-[1,4]oxazinan]-15′-one 13′,13′-dioxide] | 8.18 nM | > 33300 nM | 
C[C@@H]1[C@@H](C)C/C=C/[C@]2(CN(Cc3ccncc3)CCO2)[C@@H]2CC[C@H]2CN2C[C@@]3(CCCc4cc(Cl)ccc43)COc3ccc(cc32)C(=O)NS1(=O)=O [Example 136, (1S,3′R,6′R,7′R,8′E,11′S,12′R)-6-chloro-11′,12′-dimethyl-4″- (4-pyridinylmethyl)-3,4-dihydro-2H,15′H-dispiro[naphthalene-1,22′-[20]oxa[13]thia[1,14]diazatetracyclo [14.7.2.0~3,6~.0~19,24~]pentacosa[8,16,18,24]tetraene-7′,2″-[1,4]oxazinan]-15′-one 13′,13′-dioxide] | 4.7 nM | 1020 nM | 
C[C@@H]1[C@@H](C)C/C=C/[C@]2(CN(Cc3cccnc3)CCO2)[C@@H]2CC[C@H]2CN2C[C@@]3(CCCc4cc(Cl)ccc43)COc3ccc(cc32)C(=O)NS1(=O)=O [Example 137, (1S,3′R,6′R,7′R,8′E,11′S,12′R)-6-chloro-11′,12′-dimethyl-4″- (3-pyridinylmethyl)-3,4-dihydro-2H,15′H-dispiro[naphthalene-1,22′-[20]oxa[13]thia[1,14]diazatetracyclo [14.7.2.0~3,6~.0~19,24~]pentacosa[8,16,18,24]tetraene-7′,2″-[1,4]oxazinan]-15′-one 13′,13′-dioxide] | 4.74 nM | 1150 nM | 
C[C@@H]1[C@@H](C)C/C=C/[C@]2(CN(CC3CCCCC3)CCO2)[C@@H]2CC[C@H]2CN2C[C@@]3(CCCc4cc(Cl)ccc43)COc3ccc(cc32)C(=O)NS1(=O)=O [Example 139, (1S,3′R,6′R,7′R,8′E,11′S,12′R)-6-chloro-4″- (cyclohexylmethyl)-11′,12′-dimethyl-3,4-dihydro-2H,15′H-dispiro[naphthalene-1,22′-[20]oxa[13]thia[1,14]diazatetracyclo [14.7.2.0~3,6~.0~19,24~]pentacosa[8,16,18,24]tetraene-7′,2″-[1,4]oxazinan]-15′-one 13′,13′-dioxide] | 32 nM | > 33300 nM | 
CO[C@]1(CN2CCN3C(=O)COC[C@@H]3C2)/C=C/C[C@H](C)[C@@H](C)S(=O)(=O)NC(=O)c2ccc3c(c2)N(C[C@@H]2CC[C@H]21)C[C@@]1(CCCc2cc(Cl)ccc21)CO3 [Example 140, (1S,3′R,6′R,7′R,8′E,11′S,12′R)-6-chloro-7′-methoxy-11′,12′-dimethyl-7′-(((9aS)-4-oxohexahydropyrazino[2,1-c][1,4]oxazin-8(1H)-yl)methyl)-3,4-dihydro-2H,15′H-spiro[naphthalene-1,22′-[20]oxa[13]thia[1,14]diazatetracyclo [14.7.2.0~3,6~.0~19,24~]pentacosa[8,16,18,24]tetraen]-15′-one 13′,13′-dioxide] | 0.098 nM | 125 nM | 
